One molecule from article PMC8689651, “Chemical Mapping Exposes the Importance of Active Site Interactions in Governing the Temperature Dependence of Enzyme Turnover” (ACS Catalysis, 2021) can be followed below.

This experiment addresses T1, ssGDH (glucose dehydrogenase from Sulfolobus solfataricus) (Saccharolobus solfataricus, UniProt O93715).
T1 construct: gene gdh; full-length, recombinant from pET3a, heat step (70 °C), anion exchange and gel filtration, no tag mentioned; homotetramer; five Trp per monomer
As to the kind of experiment: steady-state NADPH formation at […] nm. The class given is biochemical. As to conditions: apparent substrate inhibition; co-substrate NADP+; 100 mM HEPES pH 8; temperature not stated with the value.

T1 sequence (O93715 whole entry): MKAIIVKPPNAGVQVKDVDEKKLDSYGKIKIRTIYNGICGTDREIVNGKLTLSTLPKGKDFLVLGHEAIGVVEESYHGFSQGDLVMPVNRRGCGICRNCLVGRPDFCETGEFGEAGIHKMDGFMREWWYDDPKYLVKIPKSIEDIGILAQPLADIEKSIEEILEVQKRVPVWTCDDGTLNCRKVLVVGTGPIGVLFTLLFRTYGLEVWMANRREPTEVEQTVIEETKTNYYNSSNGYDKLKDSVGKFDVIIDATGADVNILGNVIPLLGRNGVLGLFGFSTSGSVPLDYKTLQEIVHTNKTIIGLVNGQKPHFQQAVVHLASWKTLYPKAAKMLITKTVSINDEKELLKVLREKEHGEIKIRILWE

On to `OC[C@@H]1C[C@H](O)[C@@H](O)C(O)O1` (stereo partly drawn) [4-deoxy, 4-deoxy-D-glucose], for which the Ki amounted to 29.5 ± 8.7 mM.
